# Entries after “also recorded” stand apart in the source; their conditions may differ.
# Test system: Male Wistar rats
# Assay: Excretion of radiolabeled triolein and tripalmitin in rats fed test diets
# Assay type: in vivo, rat
# Experimental: As noted above, saturated fat is deemed to be complexed if at least about 5% of the available saturated fat is complexed. The amount of fat that is complexed is determined by conducting excretion studies as detailed below, and determining the amount of fat that is excreted as compared to a control sample not containing complexed fat. While some of the complexed fat may dissociate in the body, the excretion study will identify the minimum percentage of fat that is complexed.
# • 13. Centrifuge the isolated aqueous layer from 11 above at 5000×g for 10 min. • 14. Filter 1 ml of the centrifuged sample supernatant with 0.45 micrometer nylon filter. Inject on to HPLC molecular sizing column. Quantify total cyclodextrin relative to a response factor developed from a standard curve of pure cyclodextrin. • 15. For Pure Fat Samples Only: Weigh remainder of supernatant sample into tared flask. Evaporate moisture to dryness. Record weight of solids. (note: net weight for non-salt containing fat samples will represent free alpha-cyclodextrin) • 16. Subtract free alpha-cyclodextrin amounts determined in 8 above from values determined in steps 15 and 16. Value equals total bound alpha-cyclodextrin. Experimental Design Male Wistar rats, 125-150 g in initial weight, 10 per group, were fed one of four diets. The diets were modifications of the AIN-93G diet [Reeves, PG (1997) Components of the AIN-93 Diets as Improvements in the AIN-76A Diet, J. Nutr. 127:838 S-841S], and thus was a purified diet. All diets were modified to contain 15% fat by weight, wherein the fat comprised 50% ^14C-triolein, an unsaturated fat that is a triglyceride of oleic acid, and 50% ^3H-tripalmitin, a saturated fat that is a triglyceride of palmitic acid. The diets were as follows:
# Note that Diet 3 comprised the AIN-93G diet containing 5% α-cyclodextrin (replacing cellulose), which was added in the free unhydrated form as provided by the manufacturer (unhydrated ACD contains approximately 10% w/w moisture). Diet 4 comprised the AIN-93G diet containing 5% hydrated α-cyclodextrin (replacing cellulose), mixed with the radiolabeled fat prior to incorporation into the diet.
# The animals were fed their respective diets for 7 days. A two day fecal fat collection was made during days 6 and 7 to allow for a conventional fecal fat determination (i.e. fat extraction with acidified chloroform:methanol). The animals were then fasted overnight, and presented with a 4 g meal of their respective diets containing ^14C-triolein and ^3H-tripalmitin incorporated into the diet. A fecal collection was begun four hours later, and continued until the animals were taken. Twelve hours later, the rats were killed and the small and large intestinal tracts removed. Contents of the stomach, small intestine, cecum, and colon as well as the small intestinal mucosa were collected and freeze-dried. […] After solubilization, the solution was neutralized with glacial acetic acid (to eliminate chemiluminescence), scintillation cocktail added, and the vials counted in a liquid scintillation counter using a dual label counting algorithm.
# In this study, excretion is defined as all radiolabel present in the cecal contents, colon contents, and feces. Excretion is calculated in this manner as there is no absorption of triacylglycerols in the large intestine; thus, any radiolabel present in the cecal or colon contents cannot be absorbed and is thus destined to be excreted. […]
# [1] = 5% in AIN-93G diet with 15% fat, fed 7 days, then 4 g radiolabeled meal, FIG. 1
structure (smiles),measurement,setting,value
"OC[C@H]1O[C@@H]2O[C@H]3[C@H](O)[C@@H](O)[C@@H](O[C@H]4[C@H](O)[C@@H](O)[C@@H](O[C@H]5[C@H](O)[C@@H](O)[C@@H](O[C@H]6[C@H](O)[C@@H](O)[C@@H](O[C@H]7[C@H](O)[C@@H](O)[C@@H](O[C@H]1[C@H](O)[C@H]2O)O[C@@H]7CO)O[C@@H]6CO)O[C@@H]5CO)O[C@@H]4CO)O[C@@H]3CO [α-cyclodextrin, alpha-cyclodextrin]","triolein excretion (radiolabel in cecal contents, colon contents and feces)",[1],no or only a modest effect
same,"tripalmitin excretion (radiolabel in cecal contents, colon contents and feces)",[1],dramatically increased; also recorded: dramatic effect
same,"triolein excretion (radiolabel in cecal contents, colon contents and feces)","5% in AIN-93G diet with 15% fat, fed 7 days, then 4 g radiolabeled meal, FIG. 1, listed as α-Cyclodextrin",no affect
same,ratio of excretion of tripalmitin to triolein,"calculated from FIG. 1 values (radiolabel excreted as proportion of radiolabel consumed), FIG. 2",favored tripalmitin excretion
same,fat excretion,"dietary, 5% in diet, rats",does indeed increase fat excretion

# — patent publication US8790735B2, “Method of preferentially reducing absorption of saturated fat and compositions” (General Mills, Inc., priority 2005, dated 2014)
